# Experimental data: PubChem BioAssay (NCI)
#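 Briefly, cells in 96-well plates were exposed to five compound concentrations for 48 h, and endpoints were estimated by linear interpolation. The concentration for 50% growth inhibition is given as GI50. Definition used: TGI = concentration required for complete inhibition of growth.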
# Tests used:
# Assay in all cases: NCI anticancer screen, dose series, 48 h
# HOP-62 NSCLC = test system: HOP-62 NSCLC
# NCI-H522 lung = test system: NCI-H522 lung
# OVCAR-5 ovarian = test system: OVCAR-5 ovarian
# SF-295 CNS = test system: SF-295 CNS
# SF-539 CNS = test system: SF-539 CNS
# SK-MEL-2 melanoma = test system: SK-MEL-2 melanoma
# SN12C renal = test system: SN12C renal
# T-47D breast = test system: T-47D breast
# U251 CNS = test system: U251 CNS
Compound,TGI (HOP-62 NSCLC),TGI (NCI-H522 lung),TGI (OVCAR-5 ovarian),TGI (SF-295 CNS),TGI (SF-539 CNS),TGI (SK-MEL-2 melanoma),TGI (SN12C renal),TGI (T-47D breast),TGI (U251 CNS),GI50 (NCI-H522 lung),GI50 (OVCAR-5 ovarian),GI50 (SF-539 CNS),GI50 (SK-MEL-2 melanoma),GI50 (SN12C renal)
CC(=O)O[C@H]1CC[C@@H](OC(C)=O)[C@H]2[C@H](O)[C@H](O)[C@@H]1n1c(=O)n(-c3ccccc3)c(=O)n12,> 100 µM,> 100 µM,> 100 µM,> 100 µM,> 100 µM,> 100 µM,> 100 µM,> 100 µM,> 100 µM,–,–,–,–,–
Cc1ccc(S(=O)(=O)OCCN(CCOS(=O)(=O)c2ccc(C)cc2)c2ccc(C=O)cc2)cc1,–,34.1 µM,64.8 µM,> 100 µM,> 100 µM,40.1 µM,–,> 100 µM,71.5 µM,–,–,–,–,–
BrC1(c2ccccc2)C[n+]2c(-c3ccccc3)cc(-c3ccccc3)cc2-c2ccccc21 (stereo not given),7.41 µM,11.3 µM,4.1 µM,5.68 µM,11.4 µM,1.08 µM,16.7 µM,–,1.2 µM,–,–,–,–,–
NCCCNc1nc2ccccc2c2c(=O)c3cc(Cl)ccc3sc12,–,3.14 µM,3.14 µM,–,3.15 µM,3.69 µM,3.07 µM,–,–,1.66 µM,1.67 µM,1.72 µM,1.99 µM,1.63 µM
CCCCCCCCCCCCOCC(COP(=O)(O)OCCN=[N+]=[N-])OC(=O)CCCCCCCCCCC (stereo not given),> 100 µM,> 100 µM,> 100 µM,> 100 µM,> 100 µM,> 100 µM,> 100 µM,> 100 µM,> 100 µM,–,–,–,–,–
NC(=O)CSc1nc2ccccc2c(=O)n1N,–,> 100 µM,> 100 µM,> 100 µM,> 100 µM,> 100 µM,> 100 µM,> 100 µM,> 100 µM,–,–,–,–,–
CC(C)CNP(=O)(NCC(C)C)Oc1ccc(CC(NC(=O)OCc2ccccc2)C(=O)OCc2ccccc2)cc1 (stereo not given),30.8 µM,30.5 µM,> 100 µM,98.4 µM,–,34.8 µM,39.9 µM,33.5 µM,30.1 µM,–,–,–,–,–
CCOC(=O)N1CCNCCN(C(=O)OCC)CCNCC1,> 100 µM,> 100 µM,> 100 µM,> 100 µM,> 100 µM,> 100 µM,> 100 µM,> 100 µM,> 100 µM,–,–,–,–,–
COc1ccc(C2C(=O)c3ccc(OC)cc3OC2c2cccnc2)cc1 (stereo not given),> 100 µM,> 100 µM,> 100 µM,> 100 µM,> 100 µM,> 100 µM,> 100 µM,> 100 µM,> 100 µM,–,–,–,–,–
CC(C)Oc1cccc(N2C(CCc3c[nH]c4ccc(Br)cc34)=NS(=O)(=O)c3cnccc32)c1,> 100 µM,> 100 µM,> 100 µM,> 100 µM,> 100 µM,> 100 µM,> 100 µM,> 100 µM,> 100 µM,–,–,–,–,–
CCNC(=S)N/N=C(/C)c1cccc(/C(C)=N\NC(=S)NCC)n1,> 100 µM,24.5 µM,> 72.8 µM,> 38.8 µM,23.7 µM,> 93.1 µM,> 65.6 µM,> 45.4 µM,58 µM,–,–,–,–,–
